We go through one molecule from paper PMC6021345 (Oncotarget, 2018).

In one data set the test system is intestinal inflammation. As to the kind of experiment: Intestinal inflammation in CPT-11 treated mice. It counts as in vivo. The procedure: (§1) CT-26 cell line was used to make the tumor bearing mouse model by s.c. injection of 0.02mL cells in PBS at 5×10^7 cells/mL into the posterior mid-dorsum. Tumor volumes were estimated by the formula π/6×a^2×b, where a is the short and b is the long axis. When tumor volume reached roughly 100mm^3 (~10 days after implantation, defined as day 1), mice were randomly separated into 5 groups, 1). CPT-11 only group, receiving CPT-11 50mg/kg + vehicle 2). CPT-11+Hst 20mg/kg, 3). CPT-11+Hst 100mg/kg, 4). Hst 100mg/kg only, and 5) vehicle control group. CPT-11 was administrated by i.p. injection from day 1 to day 9 while Hst were administrated by oral gavage from day 1 to the end of study. An equivalent dosage of saline or CMC were administrated by i.p injection and oral gavage as vehicle, respectively. Mice were examined daily for signs of diarrhea (fecal staining of skin, lose watery stool) and bloody diarrhea (black sticky stool), as well as tumor growth. After sacrifice, jejunum, ileum and colon samples were dissected. Tissues were formalin-fixed and paraffin embedded for histological examination using 4μm-thick, 100μm step serial sections stained with H&E. A histologic score to evaluate inflammation, epithelial changes and mucosa architecture for each slide was calculated as described previously. […]

The test system of the next data set is STAT3. As to the kind of experiment: STAT3 Cignal Reporter Assay. It counts as cell-based. Conditions: HEK293 cells, Hst 24h, IL-6 100 ng/ml 90 min. As for the experimental part: STAT3 transcription factor activity was measured using the Cignal STAT3 Reporter Assay Kit (Qiagen) according to the manufacturers’ instructions. HEK293 cells were transfected with the Renilla luciferase reporter plasmid. Twenty-four hours later, cells were treated with Hst for 24h, and were incubated with 100 ng/ml IL-6 for 90 min before lysed. Subsequently, Renilla luciferase activity was measured in a microplate reader. Relative transcription factor activity was calculated by dividing relative light units (RLU) of the STAT3-specific reporter and the negative control reporter.

In a further data set the test system is p-STAT3. As to the kind of experiment: Immunohistochemistry of p-STAT3 in mouse tumors. It counts as in vivo, mice. As to conditions: CPT-11 + Hst. As for the experimental part:
as §1

For a further data set, the system named is liver CES. In words: Ex vivo liver CES assay (microsomes) after oral Hst. It counts as in vivo, mice. As to conditions: 20 mg/kg Hst oral. As for the experimental part: (§2) Single oral dose of 135 mg Hst in healthy adult subjects was rapidly absorbed and the concentration in plasma observed 20 min after dosing and reached a peak in 4h.
(§3) Microsomes of the liver and small intestinal epithelium were prepared from animals with or without Hst treatment. Animals were killed by exsanguination at 4h after single oral dosing of Hst. Their liver and small intestines were removed immediately and cooled in cold physiological saline. Small intestine epithelium was scraped from the intestine with slide glass. Tissues were homogenized in 1.15% KCl on ice by a Teflon homogenizer, followed by centrifugation at 9,000×g for 10min at 4°C. The supernatant was re-centrifuged at 105,000×g for 60 min at 4°C, resulting in sedimentation of the microsome. The microsomal pellet was re-suspended in 1.15% KCl. To measure CES activity, microsomes (protein content: 1 mg/mL) were incubated with 4-NAP solution in phosphate-buffered saline at 37°C, and 50μL aliquots were sampled up to 20 min.

For data set [1] the following is noted: single oral dose of 135 mg Hst, healthy adult subjects, cited from earlier work.
For the next data set, the system named is p-STAT3 (Tyr705). As to the kind of experiment: Western blot of IL-6 induced p-STAT3 (Tyr705) in cancer cell lines. It counts as cell-based. As to conditions: various cancer cell lines, IL-6 100ng/ml 90 min. The procedure: CT-26 (murine colon cancer), HCT-116 (human colon cancer), CRL-1739 (human stomach gastric cancer) and CRL-1682 (human pancreatic cancer) cell lines were purchased form ATCC. All cells were cultured in T-75 flasks (Falcon). All media were purchased from Life Technologies and supplemented with 10% fetal bovine serum (Sigma) and 1% penicillin-streptomycin (Fisher Scientific). CT-26 and CRL-1682 were cultured in RPMI-1640 medium. CRL-1739 and HCT-116 were cultured in DMEM medium. All cells were cultured in a 37° C, 5% CO2 incubator.
RIPA buffer was purchased form Fisher Scientific. Xpert protease inhibitor cocktail solution 100X and Xpert phosphatase inhibitor cocktail solution 100X were purchased from GenDEPOT. 4–20% Mini-PROTEAN® TGX™ Gel and Trans-Blot® Turbo™ Mini Nitrocellulose Transfer Packs were purchased form Bio-Rad. Rabbit NF-κB and phospho-Stat3 (Tyr705) primary antibody, mouse β-Actin (8H10D10) primary antibody, and anti-mouse IgG HRP conjugated, anti-rabbit IgG HRP conjugated secondary antibody were purchased from Cell Signaling Technology.
A general note: In western blotting, separated proteins are transferred to a membrane and probed.

Another data set relates to small intestinal CES. As to the kind of experiment: Ex vivo small intestinal CES assay (microsomes) after oral Hst. Conditions: 20 mg/kg Hst oral, 4h after single dose, n=5. It counts as in vivo, mice. The procedure:
as §2, §3

The subject of the next data set is CT-26 tumor. In words: Tumor growth in CT-26 tumor-bearing mice. It counts as in vivo. As for the experimental part: as §1

Turning to `COc1ccc([C@@H]2CC(=O)c3c(O)cc(O)cc3O2)cc1O` [hesperetin], in the data set with intestinal inflammation (dose dependent), the “infiltration of inflammatory cells (neutrophils, macrophages) and cytokine release (TNF-α, IL-6)” value is “blocked”. In addition, the “tissue expression of NF-κB” value in the data set on intestinal inflammation (mouse small intestine) was “significantly down-regulated”. In addition, the “concentration inhibiting IL-6 induced STAT3 reporter activity” value with STAT3 was in the range of 20 to 100 µM. Moreover, the “p-STAT3 expression in the tumors” value with p-STAT3 was “remarkably suppressed”. Further, the “liver CES activity” value in the data set on liver CES (4h after single dose, n=5) is listed as 8.89±0.74 nmol/min/g protein. The “change of liver CES activity” value with liver CES (vs control) is listed as “did not have an obvious change”. Moreover, in data set [1], the “time after dosing at which concentration in plasma was observed” value is 20 min and the “time to peak plasma concentration” value is on record as 4 h. Besides, the Cmax in data set [1] (read-out: mean peak plasma concentration (Cmax)) was 2730 ± 1350 nM. In the data set with p-STAT3 (Tyr705), the “IL-6 induced p-STAT3 (Tyr705) expression” value was “significant down-regulation”. For the same molecule, in the data set on small intestinal CES, the “small intestinal CES activity” value is reported as 2.28±1.42 nmol/min/g protein. Further, in the data set with small intestinal CES (vs control), the “reduction of small intestinal CES activity” value was 56%. Moreover, the “effect on in vivo antitumor activity of CPT-11” value in the data set on CT-26 tumor (Hst 20 and 100 mg/kg + CPT-11, starting 5-6 days after Hst treatment) is “enhanced the in vivo antitumor activity of CPT-11”. Further, in the data set with CT-26 tumor (Hst alone 100 mg/kg), the “tumor growth, Hst alone” value was “mild inhibition on tumor growth”.
